Each structure is given as a SMILES string.

As usually defined, the melting point is the temperature, or range, at which the solid turns liquid. For `CCCc1nc2c(N)nc3cc(OCc4cccnc4)ccc3c2s1` [Example 32, 2-Propyl-7-[(pyridin-3-yl)methoxy]thiazolo[4,5-c]quinolin-4-amine], the melting point lay in the range of 167 to 169 °C.
The compound `CCCc1nc2c(N)nc3cc(OCCn4cccc4)ccc3c2s1` [Example 33, 2-Propyl-7-[2-(pyrrol-1-yl)ethoxy]thiazolo[4,5-c]quinolin-4-amine] showed a melting point of 158 to 160 °C.
Under `CCc1nc2c(N)nc3cc(OCc4cccc(CO)n4)ccc3c2s1` [Example 43] stands 186 to 187 °C; under `CCc1nc2c(N)nc3cc(OCc4cccc(Cl)n4)ccc3c2s1` [Example 38, 7-[(6-Chloropyridin-2-yl)methoxy]-2-ethylthiazolo[4,5-c]quinolin-4-amine], 229 to 230 °C.
Under `CCCc1nc2c(N)nc3cc(OCc4cscn4)ccc3c2s1` [Example 31, 2-Propyl-7-[(thiazol-4-yl)methoxy]thiazolo[4,5-c]quinolin-4-amine] stands 218 to 220 °C.
Under `CCc1nc2c(N)nc3cc(OCc4ccccc4)ccc3c2s1` [Example 29, 7-Benzyloxy-2-ethylthiazolo[4,5-c]quinolin-4-amine] stands 208 to 209 °C.
Compound `CCCc1nc2c(N)nc3cc(OCCc4ccc(F)cc4)ccc3c2s1` [Example 3, 7-[2-(4-Fluorophenyl)ethoxy]-2-propylthiazolo[4,5-c]quinolin-4-amine] returned a melting point of 145 to 148 °C.
In the case of `CCc1nc2c(N)nc3cc(OCc4ccc(C(F)(F)F)o4)ccc3c2s1` [Example 36, 2-Ethyl-7-{[5-(trifluoromethyl)furan-2-yl]methoxy} thiazolo[4,5-c]quinolin-4-amine] it was 152 to 154 °C; in that of `CCCc1nc2c(N)nc3cc(OCc4ccc(F)cc4)ccc3c2s1` [Example 2, 7-(4-Fluorobenzyloxy)-2-propylthiazolo[4,5-c]quinolin-4-amine], 189 to 192 °C.
In the case of `CCc1nc2c(N)nc3cc(OCc4ccc(C(=O)OC)o4)ccc3c2s1` [Example 42, Methyl 5-{[(4-amino-2-ethylthiazolo[4,5-c]quinolin-7-yl)oxy]methyl}-2-furoate] it was 184 to 186 °C; in that of `CCc1nc2c(N)nc3cc(OCCc4c[nH]c5ccccc45)ccc3c2s1` [Example 45, 2-ethyl-7-[2-(1H-indol-3-yl)ethoxy]thiazolo[4,5-c]quinolin-4-amine], 218 to 220 °C; in that of `CCCc1nc2c(N)nc3cc(OCc4ccccc4)ccc3c2s1` [Example 1, 7-Benzyloxy-2-propylthiazolo[4,5-c]quinolin-4-amine], 175 to 178 °C.
Under `CCc1nc2c(N)nc3cc(OCCc4c(C)n[nH]c4C)ccc3c2s1` [Example 39, 7-[2-(3,5-Dimethyl-1H-pyrazol-4-yl)ethoxy]-2-ethylthiazolo[4,5-c]quinolin-4-amine] stands 195 to 197 °C.
The compound `CCCc1nc2c(N)nc3cc(OCc4ccoc4)ccc3c2s1` [Example 5, 7-(Furan-3-ylmethyloxy)-2-propylthiazolo[4,5-c]quinolin-4-amine] yielded a melting point of 170 to 171 °C.
Under `CCCc1nc2c(N)nc3cc(OCCOCc4ccccc4)ccc3c2s1` [Example 4, 7-[2-(Benzyloxy)ethoxy]-2-propylthiazolo[4,5-c]quinolin-4-amine] stands 142 to 145 °C; under `CCc1nc2c(N)nc3cc(OCCCc4cccnc4)ccc3c2s1` [Example 30, 2-Ethyl-7-[3-(pyridin-3-yl)propoxy]thiazolo[4,5-c]quinolin-4-amine], 172 to 173 °C; under `CCc1nc2c(N)nc3cc(OCc4ccc(S(=O)(=O)NCCc5cc6ccccc6[nH]5)cc4)ccc3c2s1` [Example 37, 4-{[(4-Amino-2-ethylthiazolo[4,5-c]quinolin-7-yl)oxy]methyl}-N-[2-(1H-indol-2-yl)ethyl]benzenesulfonamide], 100 to 101 °C.
Under `CCc1nc2c(N)nc3cc(OCCCn4cc(CO)nn4)ccc3c2s1` [Example 40, (1-{[3-(4-Amino-2-ethylthiazolo[4,5-c]quinolin-7-yl)oxy]propyl}-1H-[1,2,3]triazol-4-yl)methanol] stands 194 to 197 °C; under `CCc1nc2c(N)nc3cc(Oc4ccc(C(=O)OC)cn4)ccc3c2s1` [Example 44, Methyl 6-[(4-amino-2-ethylthiazolo[4,5-c]quinolin-7-yl)oxy]nicotinate], 213 to 214 °C.
Under `CCCc1nc2c(N)nc3cc(OCc4c(C)noc4C)ccc3c2s1` [Example 35, 7-[(3,5-Dimethylisoxazol-4-yl)methoxy]-2-propylthiazolo[4,5-c]quinolin-4-amine] stands 178 to 180 °C.
`CCc1nc2c(N)nc3cc(OCc4nc5ccccc5s4)ccc3c2s1` [Example 41, 7-[(1,3-Benzothiazol-2-yl)methoxy]-2-ethylthiazolo[4,5-c]quinolin-4-amine] gave a melting point of 211 to 212 °C.
In the case of `CCCc1nc2c(N)nc3cc(OCCCn4cccc4)ccc3c2s1` [Example 34, 2-Propyl-7-[3-(pyrrol-1-yl)propoxy]thiazolo[4,5-c]quinolin-4-amine] it was 152 to 154 °C.

These data come from patent US20070208052A1, “Aryloxy and arylalkyleneoxy substituted thiazoloquinolines and thiazolonaphthyridines” (priority 2004, published 2007).
